Reference: the supplement of paper PMC11061612

Experiments:
Experiment in all cases: combination Emax (second highest fraction inhibited in the dose matrix, 72 h); higher = more inhibition; extreme values may be limits of the assay
NCI-H2369 (Mesothelioma) = system: NCI-H2369 (Mesothelioma)
Outline: (§1)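 Bliss excess equals the observed combination effect minus the expected value EA + EB − EA·EB, where EA and EB are the effects of each agent alone. Combination Emax is the second-highest inhibition within the matrix. Inhibition was scaled from CellTiter-Glo 2.0 luminescence, with 0 set by vehicle wells and 1 by blank wells, after 72 hours of two-drug dosing of cells plated in 1536-well plates.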

[1] = system: EM-2 (Chronic Myelogenous Leukemia)
Outline: as §1

[2] = system: DB (B-Cell Non-Hodgkin's Lymphoma)
Outline: as §1

[3] = system: JiyoyeP-2003 (Burkitt's Lymphoma)
Outline: as §1

[4] = system: NALM-6 (B-Lymphoblastic Leukemia)
Outline: as §1

[5] = system: SW756 (Cervical Carcinoma)
Outline: as §1

[6] = system: HCC2157 (Breast Carcinoma)
Outline: as §1

[7] = system: G-292-Clone-A141B1 (Osteosarcoma)
Outline: as §1

RH-1 (Ewing's Sarcoma) = system: RH-1 (Ewing's Sarcoma)
Outline: as §1

[8] = system: CFPAC-1 (Pancreatic Carcinoma)
Outline: as §1

[9] = system: MFH-ino (Other Solid Carcinomas)
Outline: as §1

[10] = system: C3A (Hepatocellular Carcinoma)
Outline: as §1

[11] = system: KARPAS-1106P (B-Cell Non-Hodgkin's Lymphoma)
Outline: as §1

[12] = system: SW1783 (Low Grade Glioma)
Outline: as §1

[13] = system: KARPAS-620 (Plasma Cell Myeloma)
Outline: as §1

[14] = system: SUIT-2 (Pancreatic Carcinoma)
Outline: as §1

SK-N-FI (Neuroblastoma) = system: SK-N-FI (Neuroblastoma)
Outline: as §1

DSH1 (Bladder Carcinoma) = system: DSH1 (Bladder Carcinoma)
Outline: as §1

[15] = system: LU-99A (Non-Small Cell Lung Carcinoma)
Outline: as §1

[16] = system: KATOIII (Gastric Carcinoma)
Outline: as §1

| SMILES | combination Emax (NCI-H2369 (Mesothelioma)) | combination Emax [1] | combination Emax [2] | combination Emax [3] | combination Emax [4] | combination Emax [5] | combination Emax [6] | combination Emax [7] | combination Emax (RH-1 (Ewing's Sarcoma)) | combination Emax [8] | combination Emax [9] | combination Emax [10] | combination Emax [11] | combination Emax [12] | combination Emax [13] | combination Emax [14] | combination Emax (SK-N-FI (Neuroblastoma)) | combination Emax (DSH1 (Bladder Carcinoma)) | combination Emax [15] | combination Emax [16] |
| --- | --- | --- | --- | --- | --- | --- | --- | --- | --- | --- | --- | --- | --- | --- | --- | --- | --- | --- | --- | --- |
| CN(CCO)CC[C@H](CSc1ccccc1)Nc1ccc(S(=O)(=O)NC(=O)c2ccc(N3CCC([C@@H](O)c4ccccc4-c4ccc(Cl)cc4)CC3)cc2)cc1S(=O)(=O)C(F)(F)F [AZD4320] + Cc1cc2ncnn2cc1Nc1ncc2c(n1)n(C1CCOCC1)c(=O)n2C [AZD7648] (first compound max 1 µM, 7x7, partner max 10 µM) | 0.0705 | 0.99 | 0.976 | 0.639 | 0.975 | 0.112 | 0.959 | 0.624 | 0.438 | 0.134 | 0.161 | 0.248 | 0.313 | 0.366 | 1 | 0.104 | 0.201 | 0.586 | 0.447 | 0.151 |
| NC1(C(=O)N[C@@H](CCO)c2ccc(Cl)cc2)CCN(c2ncnc3[nH]ccc23)CC1 [Capivasertib] + CCN(CCO)CCCOc1ccc2c(Nc3cc(CC(=O)Nc4cccc(F)c4)[nH]n3)ncnc2c1 [AZD2811] (first compound max 10 µM, 7x7, partner max 1 µM) | 0.231 | 0.877 | 0.635 | 0.777 | 0.907 | 0.287 | 1 | 0.245 | 0.981 | 0.319 | 0.318 | 0.307 | 0.502 | 0.469 | 0.798 | 0.177 | 0.396 | 0.668 | 0.559 | 0.295 |
| CN(CCO)CC[C@H](CSc1ccccc1)Nc1ccc(S(=O)(=O)NC(=O)c2ccc(N3CCC([C@@H](O)c4ccccc4-c4ccc(Cl)cc4)CC3)cc2)cc1S(=O)(=O)C(F)(F)F [AZD4320] + CCN(CCO)CCCOc1ccc2c(Nc3cc(CC(=O)Nc4cccc(F)c4)[nH]n3)ncnc2c1 [AZD2811] (first compound max 1 µM, 7x7, partner max 1 µM) | 0.378 | 0.985 | 0.891 | 0.827 | 0.98 | 0.157 | 0.979 | 0.578 | 0.913 | 0.115 | 0.102 | 0.22 | 0.215 | 0.412 | 1 | 0.089 | 0.206 | 0.819 | 0.701 | 0.0347 |
| COc1nnc2ccc(N3CCC(c4ccc(OCCN5CCN(C)C(=O)[C@H]5C)cc4)CC3)nn12 [AZD5153] + C=CCn1c(=O)c2cnc(Nc3ccc(N4CCN(C)CC4)cc3)nc2n1-c1cccc(C(C)(C)O)n1 [AZD1775] (first compound max 1 µM, partner max 1 µM) | 0.461 | 0.986 | 0.953 | 0.944 | 0.951 | 0.426 | 1 | 0.402 | 0.997 | 0.506 | 0.473 | 0.718 | 0.884 | 0.41 | 0.764 | 0.693 | 0.641 | 0.614 | 0.595 | 0.473 |
| CN(CCO)CC[C@H](CSc1ccccc1)Nc1ccc(S(=O)(=O)NC(=O)c2ccc(N3CCC([C@@H](O)c4ccccc4-c4ccc(Cl)cc4)CC3)cc2)cc1S(=O)(=O)C(F)(F)F [AZD4320] + C[C@@H](Nc1cc(F)cc(F)c1)c1cc(C(=O)N(C)C)cc2c(=O)cc(N3CCOCC3)oc12 [AZD8186] (first compound max 1 µM, 7x7, partner max 3 µM) | 0.375 | 0.959 | 0.921 | 0.789 | 0.997 | 0.373 | 0.978 | 0.799 | 0.885 | 0.424 | 0.397 | 0.632 | 0.951 | 0.663 | 1 | 0.245 | 0.395 | 0.404 | 0.765 | 0.135 |
| CC(=O)Nc1cccc(-n2c(=O)n(C3CC3)c(=O)c3c(Nc4ccc(I)cc4F)n(C)c(=O)c(C)c32)c1 [Trametinib] + Cc1nc(-c2cn3c(n2)-c2ccc(-c4cnn(C(C)(C)C(N)=O)c4)cc2OCC3)n(C(C)C)n1 [Taselisib] (first compound max 1 µM, 7x7, partner max 10 µM) | 0.294 | 0.935 | 0.212 | 0.544 | 0.689 | 0.626 | 1 | 0.921 | 0.594 | 0.826 | 0.583 | 0.903 | 0.749 | 0.7 | 1 | 0.702 | 0.954 | 0.994 | 0.984 | 0.793 |
| C[C@@H]1COCCN1c1cc(C2([S@](C)(=N)=O)CC2)nc(-c2ccnc3[nH]ccc23)n1 [AZD6738] + O=C(c1cc(Cc2n[nH]c(=O)c3ccccc23)ccc1F)N1CCN(C(=O)C2CC2)CC1 [Olaparib] (first compound max 10 µM, 7x7, partner max 10 µM) | 0.133 | 0.984 | 0.736 | 0.944 | 0.976 | 0.228 | 0.907 | 0.283 | 0.965 |  | 0.576 | 0.429 | 0.672 | 0.407 | 0.544 | 0.676 | 0.701 | 0.752 | 0.712 | 0.341 |
| CCc1c2c(nc3ccc(O)cc13)-c1cc3c(c(=O)n1C2)COC(=O)[C@]3(O)CC [SN-38] + O=C(c1cc(Cc2n[nH]c(=O)c3ccccc23)ccc1F)N1CCN(C(=O)C2CC2)CC1 [Olaparib] (first compound max 0.3 µM, 7x7, partner max 10 µM) | 0.265 | 1 | 0.96 | 0.947 | 0.99 | 0.766 |  | 0.179 | 1 | 0.831 | 0.652 | 0.665 | 0.943 | 0.862 | 0.25 | 0.728 | 0.518 | 0.915 | 0.649 | 0.252 |
| C=CCn1c(=O)c2cnc(Nc3ccc(N4CCN(C)CC4)cc3)nc2n1-c1cccc(C(C)(C)O)n1 [AZD1775] + C1CN(CCC1(C(=O)N[C@@H](CCO)C2=CC=C(C=C2)Cl)N)C3=NC=NC4=C3C=CN4 [Capivasertib] (first compound max 3 µM, partner max 3 µM) | 0.3 | 0.948 | 0.893 | 0.931 | 0.985 | 0.555 |  | 0.492 | 0.98 | 0.723 | 0.35 | 0.62 | 0.909 | 0.688 | 0.857 | 0.586 | 0.628 | 0.789 | 0.623 | 0.476 |
| COc1nnc2ccc(N3CCC(c4ccc(OCCN5CCN(C)C(=O)[C@H]5C)cc4)CC3)nn12 [AZD5153] + CN(CC[C@H](CSC1=CC=CC=C1)NC2=C(C=C(C=C2)S(=O)(=O)NC(=O)C3=CC=C(C=C3)N4CCC(CC4)[C@H](C5=CC=CC=C5C6=CC=C(C=C6)Cl)O)S(=O)(=O)C(F)(F)F)CCO [AZD4320] (first compound max 1 µM, 7x7, partner max 1 µM) | 0.299 | 0.988 |  | 0.893 |  | 0.34 | 1 |  | 0.49 | 0.401 |  | 0.489 |  |  |  | 0.306 |  |  | 0.937 |  |
| C[C@@H](c1ccc2nccn2c1)n1nnc2ncc(-c3cnn(C)c3)nc21 [Savolitinib] + CN(CC[C@H](CSC1=CC=CC=C1)NC2=C(C=C(C=C2)S(=O)(=O)NC(=O)C3=CC=C(C=C3)N4CCC(CC4)[C@H](C5=CC=CC=C5C6=CC=C(C=C6)Cl)O)S(=O)(=O)C(F)(F)F)CCO [AZD4320] (first compound max 1 µM, 7x7, partner max 1 µM) | 0.114 | 0.971 |  | 0.439 |  | 0.246 | 0.934 |  | 0.488 | 0.143 |  | 0.183 |  |  |  | 0.241 |  |  | 0.245 |  |
| CC(=O)c1c(C)c2cnc(Nc3ccc(N4CCNCC4)cn3)nc2n(C2CCCC2)c1=O [Palbociclib] + CN(CC[C@H](CSC1=CC=CC=C1)NC2=C(C=C(C=C2)S(=O)(=O)NC(=O)C3=CC=C(C=C3)N4CCC(CC4)[C@H](C5=CC=CC=C5C6=CC=C(C=C6)Cl)O)S(=O)(=O)C(F)(F)F)CCO [AZD4320] (first compound max 10 µM, 7x7, partner max 1 µM) | 0.259 | 0.95 |  | 0.795 |  | 0.293 | 0.994 |  | 0.684 | 0.419 |  | 0.639 |  |  |  | 0.354 |  |  | 0.297 |  |
| Cc1c2c(nn1C)CSCc1cc(n(C)n1)CSc1cc(c3ccccc3c1)OCCCc1c(C(=O)O)n(C)c3c-2c(Cl)ccc13 [AZD5991] + C=CCn1c(=O)c2cnc(Nc3ccc(N4CCN(C)CC4)cc3)nc2n1-c1cccc(C(C)(C)O)n1 [AZD1775] (first compound max 1 µM, partner max 1 µM) | 0.327 | 0.983 | 0.999 | 0.987 | 0.878 | 0.427 | 0.979 | 0.262 | 0.994 | 0.555 | 0.31 |  | 0.997 | 0.322 | 1 | 0.555 | 0.744 | 0.791 | 0.428 | 0.237 |
